Converted amounts (≈) assume the structure as drawn.
target: CYP3A4 (Homo sapiens, UniProt P08684); test: Inhibition of CYP3A4 in human liver microsomes at 10 uM using midazolam as substrate preincubated for 5 mins followed by NADPH addition and measured after 20 mins by LC-MS/MS analysis relative to control; type: ADME; conditions: probe midazolam, time 25 min
Sequence (P08684 whole entry): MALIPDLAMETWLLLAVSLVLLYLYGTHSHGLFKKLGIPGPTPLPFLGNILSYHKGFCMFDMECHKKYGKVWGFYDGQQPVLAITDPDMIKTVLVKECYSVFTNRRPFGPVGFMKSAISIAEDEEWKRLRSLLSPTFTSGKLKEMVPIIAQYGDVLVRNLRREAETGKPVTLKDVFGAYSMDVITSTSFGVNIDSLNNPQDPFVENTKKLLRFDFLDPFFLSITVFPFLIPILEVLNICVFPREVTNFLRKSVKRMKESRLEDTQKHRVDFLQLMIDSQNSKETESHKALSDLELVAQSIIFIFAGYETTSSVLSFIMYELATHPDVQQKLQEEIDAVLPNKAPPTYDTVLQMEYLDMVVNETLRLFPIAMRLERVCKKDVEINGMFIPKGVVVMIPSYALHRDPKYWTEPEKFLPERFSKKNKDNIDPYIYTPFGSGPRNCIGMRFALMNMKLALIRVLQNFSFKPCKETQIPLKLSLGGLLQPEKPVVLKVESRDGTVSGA

**Q.** For `CC(=O)N1CCN(c2ccc(OCC3COC(Cn4ccnc4)(c4ccc(Cl)cc4Cl)O3)cc2)CC1` (configuration not stated) [KETOCONAZOLE], which inhibition at 20 min, 10 µM is on record?
**A.** 72%

test system: MCF7; test: cells; conditions: Homo sapiens, MCF7, 72 h

**Q.** With `COCCOc1nc2c(c(NC3CC3)n1)CN(C(=O)c1cc(C(C)C)c(O)cc1O)CC2` as the compound, how does the IC50 read?
**A.** 0.16 µM

**Q.** For `COCCOc1nc2c(c(N(C)C)n1)CN(C(=O)c1cc(C(C)C)c(O)cc1O)CC2`, which IC50 is on record?
**A.** 0.33 µM

target: Heat shock protein HSP 90-alpha (Homo sapiens, UniProt P07900); test: Displacement of FITC-geldanamycin from N-terminal HSP90alpha (unknown origin) after 30 mins by fluorescence polarization competitive binding assay; conditions: not given

**Q.** For `COCCOc1nc2c(c(NC3CC3)n1)CN(C(=O)c1cc(C(C)C)c(O)cc1O)CC2`, which IC50 is on record?
**A.** 0.019 µM

**Q.** With `COCCOc1nc2c(c(N(C)C)n1)CN(C(=O)c1cc(C(C)C)c(O)cc1O)CC2` as the compound, how does the IC50 read?
**A.** 0.016 µM

test system: not listed separately; test: Distribution coefficient, logD of compound at pH 7.4; type: physicochemical; conditions: octanol/water

**Q.** Which logD does the source give for `COCCOc1nc2c(c(NC3CC3)n1)CN(C(=O)c1cc(C(C)C)c(O)cc1O)CC2` here?
**A.** 2.45

**Q.** Which logD does the source give for `COCCOc1nc2c(c(N(C)C)n1)CN(C(=O)c1cc(C(C)C)c(O)cc1O)CC2` here?
**A.** 2.35

test system: not listed separately; test: Selectivity ratio of IC50 for inhibition of FITC-geldanamycin binding to N-terminal GRP94 (unknown origin) to IC50 for inhibition of FITC-geldanamycin binding to N-terminal HSP90alpha (unknown origin); conditions: not given

**Q.** With `COCCOc1nc2c(c(NC3CC3)n1)CN(C(=O)c1cc(C(C)C)c(O)cc1O)CC2` as the compound, how does the Ratio IC50 read?
**A.** 11.4

**Q.** With `COCCOc1nc2c(c(N(C)C)n1)CN(C(=O)c1cc(C(C)C)c(O)cc1O)CC2` as the compound, how does the Ratio IC50 read?
**A.** 12.2

test system: HCT-116; test: cells; conditions: Homo sapiens, HCT-116, 72 h
Description: Antiproliferative activity against human HCT-116 cells assessed as reduction in cell viability incubated for 72 hrs by MTT assay

**Q.** With `COCCOc1nc2c(c(NC3CC3)n1)CN(C(=O)c1cc(C(C)C)c(O)cc1O)CC2` as the compound, how does the IC50 read?
**A.** 0.23 µM

**Q.** Which IC50 does the source give for `COCCOc1nc2c(c(N(C)C)n1)CN(C(=O)c1cc(C(C)C)c(O)cc1O)CC2` here?
**A.** 0.26 µM

test system: not listed separately; test: Intrinsic aqueous solubility of the compound; type: physicochemical; conditions: not given

**Q.** For `COCCOc1nc2c(c(NC3CC3)n1)CN(C(=O)c1cc(C(C)C)c(O)cc1O)CC2`, which solubility is on record?
**A.** 157 µg/mL (≈ 355 µM)

**Q.** With `COCCOc1nc2c(c(N(C)C)n1)CN(C(=O)c1cc(C(C)C)c(O)cc1O)CC2` as the compound, how does the solubility read?
**A.** 153 µg/mL (≈ 355 µM)

test system: not listed separately; test: Permeability of the compound at pH 7.4 by PAMPA; type: ADME; conditions: read-out: permeability

**Q.** With `COCCOc1nc2c(c(NC3CC3)n1)CN(C(=O)c1cc(C(C)C)c(O)cc1O)CC2` as the compound, how does the Papp read?
**A.** 56.4 ×10⁻⁶ cm/s

**Q.** For `COCCOc1nc2c(c(N(C)C)n1)CN(C(=O)c1cc(C(C)C)c(O)cc1O)CC2`, which Papp is on record?
**A.** 83 ×10⁻⁶ cm/s

target: Endoplasmin (Homo sapiens, UniProt P14625); test: Displacement of FITC-geldanamycin from N-terminal GRP94 (unknown origin) after 30 mins by fluorescence polarization competitive binding assay; conditions: not given
Sequence (P14625 whole entry): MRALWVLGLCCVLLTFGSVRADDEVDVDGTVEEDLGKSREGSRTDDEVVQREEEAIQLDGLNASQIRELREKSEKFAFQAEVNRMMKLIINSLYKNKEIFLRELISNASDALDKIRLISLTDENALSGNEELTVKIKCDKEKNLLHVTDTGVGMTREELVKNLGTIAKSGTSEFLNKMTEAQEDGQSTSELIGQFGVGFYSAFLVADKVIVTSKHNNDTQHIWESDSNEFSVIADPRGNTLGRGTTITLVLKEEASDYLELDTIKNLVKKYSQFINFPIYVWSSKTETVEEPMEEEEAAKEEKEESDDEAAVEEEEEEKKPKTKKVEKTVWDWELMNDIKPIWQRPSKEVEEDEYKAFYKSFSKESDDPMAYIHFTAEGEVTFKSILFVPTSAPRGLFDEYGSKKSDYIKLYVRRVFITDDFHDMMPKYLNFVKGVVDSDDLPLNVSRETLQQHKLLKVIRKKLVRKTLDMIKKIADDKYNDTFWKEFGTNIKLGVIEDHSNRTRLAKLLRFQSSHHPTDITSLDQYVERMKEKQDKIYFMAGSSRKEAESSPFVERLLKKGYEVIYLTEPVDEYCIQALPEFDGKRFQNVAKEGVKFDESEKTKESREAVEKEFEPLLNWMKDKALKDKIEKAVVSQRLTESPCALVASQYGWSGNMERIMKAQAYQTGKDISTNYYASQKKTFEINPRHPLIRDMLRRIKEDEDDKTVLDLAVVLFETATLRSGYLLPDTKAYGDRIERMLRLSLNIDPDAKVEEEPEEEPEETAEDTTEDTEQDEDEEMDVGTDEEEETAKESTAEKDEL

**Q.** Which IC50 does the source give for `COCCOc1nc2c(c(NC3CC3)n1)CN(C(=O)c1cc(C(C)C)c(O)cc1O)CC2` here?
**A.** 0.216 µM

**Q.** With `COCCOc1nc2c(c(N(C)C)n1)CN(C(=O)c1cc(C(C)C)c(O)cc1O)CC2` as the compound, how does the IC50 read?
**A.** 0.195 µM

Source: ChEMBL document CHEMBL4706476, “Novel Tetrahydropyrido[4,3-d]pyrimidines as Potent Inhibitors of Chaperone Heat Shock Protein 90” (J Med Chem, 2016)
